Measurements taken from patent US9708368B2, “Linear peptide antibiotics” (priority 2012, dated 2017).
In brackets after ≈: the same amount, converted by molar mass. Numbered stars: 1 amine (or outer) side, 2 acyl side, 3 side chain; on linkers, the order of the positions; unused ones are H or OH. Square brackets hold non-standard residues; d marks the D form. Peptide text beside a SMILES is read from it. * marks the point of attachment. ξ: configuration not given here. Biphenylcarbonyl(4'-Bu) = CCCCc1ccc(-c2ccc(C(=O)*)cc2)cc1; X1 = C[C@H](N*)B1OC2C[C@@H]3C[C@@H](C3(C)C)[C@]2(C)O1; Benzoyl(4-(4-Cl-Ph)) = O=C(c1ccc(-c2ccc(Cl)cc2)cc1)*; ξPro(4S-NH2) = O=C(C1C[C@H](N[*:3])CN1[*:1])[*:2]; ξ3Amino2oxobutanoyl = CC(N[*:1])C(=O)C(=O)[*:2]; Benzoyl(4-hexyl) = CCCCCCc1ccc(C(=O)*)cc1; NMeThr(3ξ) = CN[C@H](C(=O)O)C(C)O; X9 = COC(=O)CN1C[C@@H](N*)C1=O; Thr(3ξ) = CC(O)[C@H](N)C(=O)O; Tle = CC(C)(C)[C@H](N)C(=O)O; 4Amb = NCc1ccc(C(=O)O)cc1; boroAla = C[C@H](N*)B(O)O; Dab = NCC[C@H](N)C(=O)O; Dap = NC[C@H](N)C(=O)O; X14 = CCCCc1ccc(*)cc1; ξOrn = NCCCC(N)C(=O)O; boroGly = OB(O)CN*; βAla = NCCC(=O)O

Experiments:
[1] = tested on: Escherichia coli strain MC4100 IMP-4213, which harbors an LptD mutation; details: Method B; E. coli MC4100 IMP-4213 (LptD mutation); 35° C., 22 hours
Protocol: In vitro antimicrobial activity of each compound was determined by measuring minimal inhibitor concentrations (MICs) using the broth micro-dilution technique as approved by the Clinical and Laboratory Standards Institute (CLSI). […] Bacterial inocula were prepared by scraping cells into 1 mL of testing media (cation adjusted Mueller Hinton Broth supplemented with 0.002% v/v Tween-80) and diluting to a final OD600 nm of 0.01.
Test compounds were prepared in DMSO at a concentration of 10 mg/ml. […] Bacterial inocula were added to the two fold serial dilutions of test compounds to a final density of OD OD600 nm of 0.0005 and incubated stationarily at 35° C. for 22 hours, after which the plates were examined visually.

[2] = tested on: methicillin resistant Staphylococcus aureus (MRSA) strain USA300 (NRS384); details: Method B, 35° C., 22 hours
S. aureus SPase = S. aureus SPase (Staphylococcus aureus, UniProt P0A070); assay: biochemical
E. coli SPase = E. coli SPase (Escherichia coli, UniProt P00803); assay: Biochemical SPase activity assay (fluorogenic peptide substrate), E. coli enzyme

Compound	MIC (μg/mL) E. coli [1] [µg/mL]	MIC (μg/mL) S. aureus [2] [µg/mL]	IC50 (S. aureus SPase) [nM]	IC50 (E. coli SPase) [nM]
CCCCc1ccc(-c2ccc(C(=O)NCCC(=O)N[C@@H](CCCCN)C(=O)NC(CCCN)C(=O)N[C@@H](C)C(=O)N[C@@H](CC(C)C)C(=O)N[C@@H](C)B3OC4C[C@@H]5C[C@@H](C5(C)C)[C@]4(C)O3)cc2)cc1 (stereo partly shown) [Compound 217] ({Biphenylcarbonyl(4'-Bu)-βAla}-K[ξOrn]AL-X1)	1.6 (≈ 1.67 µM)	0.35 (≈ 0.366 µM)	14	15
CCCCc1ccc(-c2ccc(C(=O)NCCC(=O)N[C@@H](CCCCN)C(=O)N[C@@H](CCC(N)=O)C(=O)N[C@@H](C)C(=O)N[C@@H](CCCCN)C(=O)N[C@@H](C)B3OC4C[C@@H]5C[C@@H](C5(C)C)[C@]4(C)O3)cc2)cc1 (stereo partly shown) [Compound 216] ({Biphenylcarbonyl(4'-Bu)-βAla}-KQAK-X1)	4 (≈ 4.06 µM)	0.21 (≈ 0.213 µM)	4.1	29
CCCCc1ccc(-c2ccc(C(=O)N[C@@H](CCN)C(=O)N[C@H](C(=O)N[C@@H](C)C(=O)N[C@@H](CCCCN)C(=O)N[C@@H](C)B3OC4C[C@@H]5C[C@@H](C5(C)C)[C@]4(C)O3)C(C)O)cc2)cc1 (stereo partly shown) [Compound 148] ({Biphenylcarbonyl(4'-Bu)}-[Dab][Thr(3ξ)]AK-X1)	0.4 (≈ 0.465 µM)	0.23 (≈ 0.267 µM)	140	7.4
CCCCc1ccc(-c2ccc(C(=O)NCCC(=O)N[C@@H](CCCCN)C(=O)N[C@H](C(=O)N[C@@H](C)C(=O)N[C@@H](CC(N)=O)C(=O)NC(C)C(=O)C(=O)NC)[C@@H](C)O)cc2)cc1 (stereo partly shown) [Compound 252] ({Biphenylcarbonyl(4'-Bu)-βAla}-KTAN[ξ3Amino2oxobutanoyl]-NHMe)	>64	5 (≈ 5.87 µM)	8.7	3000
CCCCc1ccc(-c2ccc(C(=O)NCCC(=O)N[C@@H](CCCCN)C(=O)N[C@@H](CCCCN)C(=O)N[C@@H](C)C(=O)N[C@@H](CCCCN)C(=O)N[C@@H](C)B(O)O)cc2)cc1 [Compound 224] ({Biphenylcarbonyl(4'-Bu)-βAla}-KKAK-boroAla)	2.8 (≈ 3.29 µM)	0.13 (≈ 0.153 µM)	12	55
CCCCc1ccc(-c2ccc(C(=O)NCCCC[C@H](NC(=O)[C@H](CCN)NC(C)=O)C(=O)N[C@@H](C)C(=O)N[C@@H](CCCCN)C(=O)N[C@@H](C)B3OC4C[C@@H]5C[C@@H](C5(C)C)[C@]4(C)O3)cc2)cc1 (stereo partly shown) [Compound 279] (Ac-[Dab]K(Biphenylcarbonyl(4'-Bu))AK-X1)	8 (≈ 8.61 µM)	11 (≈ 11.8 µM)	7400	530
CCCCc1ccc(-c2ccc(C(=O)NCCC(=O)N[C@@H](CCCCN)C(=O)N[C@H](C(=O)N[C@H](C(=O)N[C@@H](CC(N)=O)C(=O)N[C@@H](C)B3OC4C[C@@H]5C[C@@H](C5(C)C)[C@]4(C)O3)C(C)C)[C@@H](C)O)cc2)cc1 (stereo partly shown) [Compound 212] ({Biphenylcarbonyl(4'-Bu)-βAla}-KTVN-X1)	5 (≈ 5.14 µM)	0.84 (≈ 0.863 µM)	12	26
CC(C)C[C@H](NC(=O)[C@H](C)NC(=O)[C@H](CN)NC(=O)[C@H](CN)NC(=O)c1ccc(-c2ccc(Cl)cc2)cc1)C(=O)N[C@@H](C)B(O)O [Compound 176] ({Benzoyl(4-(4-Cl-Ph))}-[Dap][Dap]AL-boroAla)	8 (≈ 12.1 µM)	16 (≈ 24.2 µM)	1200	56
CCCCc1ccc(NCc2ccc(C(=O)N[C@@H](CCN)C(=O)N[C@H](C(=O)N[C@@H](C)C(=O)N[C@@H](CCCCN)C(=O)N[C@@H](C)B3OC4C[C@@H]5C[C@@H](C5(C)C)[C@]4(C)O3)[C@@H](C)O)cc2)cc1 (stereo partly shown) [Compound 250] ({X14-4Amb}-[Dab]TAK-X1)	0.71 (≈ 0.799 µM)	0.35 (≈ 0.394 µM)	110	8.4
CCCCc1ccc(-c2ccc(C(=O)N[C@@H](CCC(=O)O)C(=O)N[C@H](C(=O)N[C@@H](C)C(=O)N[C@@H](CCCCN)C(=O)N[C@@H](C)B(O)O)[C@@H](C)O)cc2)cc1 [Compound 163] ({Biphenylcarbonyl(4'-Bu)}-ETAK-boroAla)	>64	4 (≈ 5.3 µM)	310	240
CCCCc1ccc(-c2ccc(C(=O)N[C@@H](CCCCN)C(=O)N[C@@H](C)C(=O)N[C@@H](CC(C)C)C(=O)N[C@@H](C)B(O)O)cc2)cc1 [Compound 191]	16 (≈ 25.1 µM)	20 (≈ 31.4 µM)	50000	38000
CCCCc1ccc(-c2ccc(C(=O)NCCC(=O)N[C@@H](CCCCN)C(=O)N[C@H](C(=O)N[C@@H](C)C(=O)N[C@H](C(=O)N[C@@H](C)B3OC4C[C@@H]5C[C@@H](C5(C)C)[C@]4(C)O3)C(C)(C)C)[C@@H](C)O)cc2)cc1 (stereo partly shown) [Compound 211] ({Biphenylcarbonyl(4'-Bu)-βAla}-KTA[Tle]-X1)	32 (≈ 33.9 µM)	0.71 (≈ 0.752 µM)	36	–
C[C@H](NC(=O)[C@H](CCCCN)NC(=O)[C@H](C)NC(=O)[C@@H](NC(=O)[C@H](CCN)NC(=O)c1ccc(-c2ccccc2C(F)(F)F)cc1)[C@@H](C)O)B1OC2C[C@@H]3C[C@@H](C3(C)C)[C@]2(C)O1 (stereo partly shown) [Compound 236]	8 (≈ 9.18 µM)	2 (≈ 2.29 µM)	130	28
CCCCc1ccc(-c2ccc(C(=O)N3C[C@@H](N)CC3C(=O)N[C@H](C(=O)N[C@@H](C)C(=O)N[C@@H](CC(N)=O)C(=O)N[C@@H](C)B3OC4C[C@@H]5C[C@@H](C5(C)C)[C@]4(C)O3)[C@@H](C)O)cc2)cc1 (stereo partly drawn) [Compound 139] ({Biphenylcarbonyl(4'-Bu)}-[ξPro(4S-NH2)]TAN-X1)	2 (≈ 2.33 µM)	1 (≈ 1.17 µM)	8.5	3.4
CCCCCCc1ccc(C(=O)N[C@H](CO)C(=O)N[C@H](C)C(=O)NCC(=O)N(C)[C@H](C(=O)N[C@@H](C)C(=O)N[C@@H](CC(C)C)C(=O)NCB(O)O)C(C)O)cc1 (stereo partly shown) [Compound 125] ({Benzoyl(4-hexyl)}-[dS][dA]G[NMeThr(3ξ)]AL-boroGly)	–	–	55	730
CCCCCCc1ccc(C(=O)N[C@H](CO)C(=O)N[C@H](C)C(=O)NCC(=O)N(C)[C@H](C(=O)N[C@@H](C)C(=O)N[C@@H](CC(C)C)C(=O)NC(C)C(=O)C(=O)NC)C(C)O)cc1 (stereo partly shown) [Compound 114] ({Benzoyl(4-hexyl)}-[dS][dA]G[NMeThr(3ξ)]AL[ξ3Amino2oxobutanoyl]-NHMe)	–	–	390	–
CCCCCCc1ccc(C(=O)N[C@H](CO)C(=O)N[C@H](C)C(=O)NCC(=O)N(C)[C@H](C(=O)N[C@@H](C)C(=O)N[C@@H](CC(N)=O)C(=O)NC(C)C(=O)C(=O)NC)C(C)O)cc1 (stereo partly shown) [Compound 113] ({Benzoyl(4-hexyl)}-[dS][dA]G[NMeThr(3ξ)]AN[ξ3Amino2oxobutanoyl]-NHMe)	–	–	470	–
CC(C)C[C@H](NC(=O)[C@H](C)NC(=O)[C@H](CCCCN)NC(=O)[C@H](CCCCN)NC(=O)c1ccc(-c2ccc(Cl)cc2)cc1)C(=O)N[C@@H](C)B(O)O [Compound 155] ({Benzoyl(4-(4-Cl-Ph))}-KKAL-boroAla)	–	–	250	39
CCCCc1ccc(-c2ccc(C(=O)N[C@@H](CCN)C(=O)N[C@H](C(=O)N[C@@H](C)C(=O)N[C@@H](CCCCN)C(=O)N[C@@H](C)B(O)O)[C@@H](C)O)cc2)cc1 [Compound 267] ({Biphenylcarbonyl(4'-Bu)}-[Dab]TAK-boroAla)	–	0.13 (≈ 0.179 µM)	–	–
CCCCc1ccc(-c2ccc(CN[C@@H](CCN)C(=O)N[C@H](C(=O)N[C@@H](C)C(=O)N[C@@H](CCCCN)C(=O)N[C@@H](C)B(O)O)[C@@H](C)O)cc2)cc1 [Compound 267]	–	–	33	11
CCCCc1ccc(-c2ccc(C(=O)N[C@@H](CCCCN)C(=O)N3CCC[C@H]3C(=O)N[C@@H](C)C(=O)N[C@@H](CCCCN)C(=O)N[C@@H]3CN(CC(=O)OC)C3=O)cc2)cc1 [Compound 258] ({Biphenylcarbonyl(4'-Bu)}-KPAK-X9)	23 (≈ 28.1 µM)	>64	50000	–
